Tests used:
[1] = system: R3230AC rat mammary adenocarcinoma cells; assay: Phototoxicity toward R3230AC cells in culture; assay type: cell-based; settings: 10 μM, 24 h; 570-800 nm light, 0.9 J cm^−2; 24 h post-irradiation
Procedure: Similar results were obtained with R3230AC rat mammary adenocarcinoma cells in vitro. […] Light-treated cells and dark controls were incubated for 24 h and cell survival was determined. The surviving fraction, 24 h post-irradiation, is shown graphically in FIG. 4c.

R3230AC cells = assay: Viability of R3230AC cells in the dark and after light; assay type: cell-based, rat; settings: 10^−6 M; 24 h after 0.9 J cm^−2 of 590-750 nm light
Colo-26 tumors = assay: PDT against implanted Colo-26 tumors in BALB/c mice; assay type: in vivo; settings: 135 J cm^−2; DH-105 2.5, DH-82 0.13, MA-99 0.15 mg/kg, 694 nm 4 h post-injection; Photofrin® 2.5 mg/kg, 630 nm 24 h
Procedure: Core-modified porphyrin 6 gave a PDT response in vivo with 694-nm light in BALB/c mice bearing Colo-26 tumors. Animals treated with photosensitizer 6 at 3.25 mg (3.0 μmol)/kg and light required 10.3±0.8 d to reach 400-mm^3 tumor volume, which was more than double the time for control animals (4.3±1.0 d) receiving neither drug nor light (P <0.01).
The animals were irradiated 4 h post-injection with 135 J cm^−2 of 694-nm red light from a dye laser (75 mW cm^−2 for 30 min). […] For comparison purposes, BALB/C mice bearing Colo-26 tumors were given 2.5 mg (4.0 μmol)/kg of Photofrin® as a 5% aqueous dextrose solution and were irradiated 24 h later with 135 J cm^−2 of 630-nm laser light at a power of 75 mW cm^−2 for PDT with Photofrin®.
Animals initially were given i.v. (tail vein) injections of sensitizer at various concentrations (0.05to 5.0 μmol/kg). Mice were restrained at various times thereafter without anesthesia in specially designed holders. Fischer 344 female rats were chemically restrained at various times thereafter. In both models, tumors or normal back skin were exposed to light from a xenon arc lamp with appropriate filters or to a dye laser tuned to the absorption maximum determined by in vivo reflectance measurements. Power density of delivered light typically fell in the range of 10-200 mW cm^−2 evenly distributed to a spot size of roughly 1.5 cm and measured by a radiometer. Several dose rates were explored to examine role/limitation of available oxygen on the photodynamic process. Intratumor temperatures were measured with an Omega HYP-O microthermocouple and, when necessary, a stream of nitrogen gas was used to keep intratumor temperatures below 37° C. Animals were examined and measured daily for the first 14 days post treatment and every other day thereafter until the tumors reached 400 mm^3 in mice or until the tumors double in size for Fischer 344 female rats or for 90 days. Tumor size were measured in two dimensions with a caliper. Time to 400 mm^3 or volume doubling times of tumors from control and PDT-treated groups (8-12 animals per group) were compared statistically using the SAS statistical program (SAS, Inc., Cary, N.C.). A P-value of <0.05 is considered significant. The degree of damage to the normal skin within the irradiation field also were noted. Disappearance of tumor with minimal damage to normal skin is the most desirable response. Animals are considered cured if no tumor regrowth occurs by 90 days. In all studies, three control groups were utilized in addition to the treatment group receiving both sensitizer and light: 1) a complete control receiving neither drug nor light, 2) a group receiving sensitizer only, and 3) a group receiving light only. Representative animals from each of the treatment groups were processed for histology immediately, one day, or two weeks after irradiation. Step sections through the tumor were used to define the boundaries of tumor cell damage and death as a function of distance from the skin surface.

BALB/c mice = assay: Preliminary toxicity, single intravenous injection in BALB/c mice

O=C([O-])COc1ccc(-c2c3nc(c(-c4ccc(F)cc4)c4ccc(s4)c(-c4ccc(F)cc4)c4nc(c(-c5ccc(OCC(=O)[O-])cc5)c5ccc2s5)C=C4)C=C3)cc1.[Na+].[Na+] [MA-99]
phototoxicity relative to Photofrin® toward R3230AC cells (surviving fraction, FIG. 4c) [1]: more phototoxic than Photofrin®
reduction in cell number after light exposure (R3230AC cells): 40%
cures (no tumor regrowth 90 days post-treatment) (Colo-26 tumors): five cures
mean time to 400 mm^3 of the animals not cured (Colo-26 tumors): 23 ± 7 days
gross abnormalities in organs and tissues after sacrifice (BALB/c mice; 10 mg/kg i.v., after 90 days): no gross abnormalities were noted
toxicity and morbidity (BALB/c mice; 10 mg/kg, followed 90 days post-injection, normal vivarium light): neither toxicity nor morbidity was observed

Reference: patent US6984656B2, “Core modified porphyrins” (priority 2001, dated 2006)
